Source: patent publication US20100215579A1, “PHEN-NAPHTHALENE AND PHEN-QUINOLINE DERIVATIVES AND THEIR USE FOR BINDING AND IMAGING AMYLOID PLAQUES” (The Trustees of the University of Pennsylvania, priority 2007, published 2010)

Experiments:
[1] = biological target: T1, amyloid plaques (Homo sapiens, UniProt P05067); experiment: Ki values of Phen-Nap, Nap-Phen derivatives (Ki binding data)
T1 construct: fibrillary Aβ plaques consisting predominately of aggregates of Aβ40 and Aβ42 peptides

[2] = Log P (octanol/Na2HPO4 buffer pH 7.4); format: physicochemical
[3] = Biodistribution in ICR mice after an iv injection; format: in vivo
Text: Biodistribution in ICR Mice After an iv Injection of [^18F][4-(6-{2-[2-(2-Fluoro-ethoxy)-ethoxy]-ethoxy}-naphthalen-2-yl)-phenyl]-methyl-amine in 1% EtOH/0.1% BSA in Water
(% dose/organ, avg of 3 mice±SD)
(% dose/g, avg of 3 mice±SD)
Biodistribution in ICR Mice After an iv Injection of [^18F]19a in 3% EtOH/0.1% BSA in Water
Biodistribution in ICR Mice After an iv Injection of [^18F]34a in 5% EtOH/0.1% BSA in Water
Biodistribution in ICR Mice After an iv Injection of [^18F]32a in 1% EtOH/0.1% BSA in Water

[4] = Blood, 2 min after iv injection
[5] = Blood, 30 min after iv injection
[6] = Bone, 30 min after iv injection
[7] = Brain, 2 min after iv injection
[8] = Brain, 30 min after iv injection
[9] = Heart, 2 min after iv injection
[10] = Heart, 30 min after iv injection
[11] = Kidney, 2 min after iv injection
[12] = Kidney, 30 min after iv injection
[13] = Kidney, 1 hr after iv injection
[14] = Kidney, 2 hr after iv injection
[15] = Liver, 2 min after iv injection
[16] = Liver, 30 min after iv injection
[17] = Lung, 30 min after iv injection
[18] = Muscle, 2 min after iv injection
[19] = Muscle, 30 min after iv injection
[20] = Muscle, 1 hr after iv injection
[21] = Muscle, 2 hr after iv injection
[22] = Skin, 30 min after iv injection
[23] = Spleen, 2 min after iv injection
[24] = Spleen, 30 min after iv injection
[25] = Spleen, 1 hr after iv injection
[26] = Spleen, 2 hr after iv injection

T1 sequence (P05067 672-713 limits assumed): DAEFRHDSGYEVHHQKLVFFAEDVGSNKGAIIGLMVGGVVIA
T1 sequence (P05067 672-711 limits assumed): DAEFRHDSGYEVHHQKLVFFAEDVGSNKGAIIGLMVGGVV

## CNc1ccc(-c2ccc3cc(OCCOCCOCCF)ccc3c2)cc1 [Compound 13a, 4-(6-(2-(2-(2-fluoroethoxy)ethoxy)ethoxy)naphthalen-2-yl)-N-methylbenzenamine]
[1]
  Ki: 1.6 nM
[2]; pH 7.4
  logP: 3.22

## CN(C)c1ccc(-c2ccc3nc(OCCOCCOCC[18F])ccc3c2)cc1 [[^18F]32a]
[3]; [4]
  % dose/g: 1.80 ± 0.28 % dose/g
  % dose/organ: 3.32 ± 0.46 % dose/organ
[3]; [5]
  % dose/g: 0.99 ± 0.12 % dose/g
  % dose/organ: 1.80 ± 0.14 % dose/organ
[3]; Blood, 1 hr after iv injection
  % dose/g: 1.37 ± 0.14 % dose/g
  % dose/organ: 2.40 ± 0.19 % dose/organ
[3]; Blood, 2 hr after iv injection
  % dose/g: 1.13 ± 0.15 % dose/g
  % dose/organ: 2.00 ± 0.25 % dose/organ
[3]; Bone, 2 min after iv injection
  % dose/g: 1.25 ± 0.06 % dose/g
  % dose/organ: 4.63 ± 0.32 % dose/organ
[3]; [6]
  % dose/g: 0.81 ± 0.11 % dose/g
  % dose/organ: 2.92 ± 0.27 % dose/organ
[3]; Bone, 1 hr after iv injection
  % dose/g: 1.11 ± 0.14 % dose/g
  % dose/organ: 3.91 ± 0.37 % dose/organ
[3]; Bone, 2 hr after iv injection
  % dose/g: 1.47 ± 0.27 % dose/g
  % dose/organ: 5.19 ± 0.80 % dose/organ
[3]; [7]
  % dose/g: 7.76 ± 1.25 % dose/g
  % dose/organ: 3.56 ± 0.47 % dose/organ
[3]; [8]
  % dose/g: 2.33 ± 0.68 % dose/g
  % dose/organ: 1.07 ± 0.24 % dose/organ
[3]; Brain, 1 hr after iv injection
  % dose/g: 1.92 ± 0.31 % dose/g
  % dose/organ: 0.86 ± 0.14 % dose/organ
[3]; Brain, 2 hr after iv injection
  % dose/g: 1.45 ± 0.11 % dose/g
  % dose/organ: 0.66 ± 0.03 % dose/organ
[3]; [9]
  % dose/g: 10.1 ± 1.14 % dose/g
  % dose/organ: 1.36 ± 0.20 % dose/organ
[3]; [10]
  % dose/g: 1.99 ± 0.43 % dose/g
  % dose/organ: 0.26 ± 0.06 % dose/organ
[3]; Heart, 1 hr after iv injection
  % dose/g: 2.07 ± 0.23 % dose/g
  % dose/organ: 0.25 ± 0.03 % dose/organ
[3]; Heart, 2 hr after iv injection
  % dose/g: 1.28 ± 0.09 % dose/g
  % dose/organ: 0.15 ± 0.01 % dose/organ
[3]; [11]
  % dose/g: 13.0 ± 3.04 % dose/g
  % dose/organ: 5.25 ± 0.89 % dose/organ
[3]; [12]
  % dose/g: 3.61 ± 0.65 % dose/g
  % dose/organ: 1.55 ± 0.33 % dose/organ
[3]; [13]
  % dose/g: 3.38 ± 0.38 % dose/g
  % dose/organ: 1.24 ± 0.19 % dose/organ
[3]; [14]
  % dose/g: 1.78 ± 0.06 % dose/g
  % dose/organ: 0.73 ± 0.02 % dose/organ
[3]; [15]
  % dose/g: 16.3 ± 4.96 % dose/g
  % dose/organ: 19.4 ± 3.67 % dose/organ
[3]; [16]
  % dose/g: 8.02 ± 0.65 % dose/g
  % dose/organ: 11.2 ± 1.65 % dose/organ
[3]; Liver, 1 hr after iv injection
  % dose/g: 8.10 ± 1.59 % dose/g
  % dose/organ: 9.75 ± 1.79 % dose/organ
[3]; Liver, 2 hr after iv injection
  % dose/g: 5.22 ± 0.49 % dose/g
  % dose/organ: 6.34 ± 0.87 % dose/organ
[3]; Lung, 2 min after iv injection
  % dose/g: 7.63 ± 0.46 % dose/g
  % dose/organ: 1.54 ± 0.16 % dose/organ
[3]; [17]
  % dose/g: 2.31 ± 0.42 % dose/g
  % dose/organ: 0.42 ± 0.07 % dose/organ
[3]; Lung, 1 hr after iv injection
  % dose/g: 2.21 ± 0.19 % dose/g
  % dose/organ: 0.40 ± 0.01 % dose/organ
[3]; Lung, 2 hr after iv injection
  % dose/g: 1.43 ± 0.03 % dose/g
  % dose/organ: 0.27 ± 0.00 % dose/organ
[3]; [18]
  % dose/g: 0.83 ± 0.19 % dose/g
  % dose/organ: 8.87 ± 2.47 % dose/organ
[3]; [19]
  % dose/g: 1.20 ± 0.28 % dose/g
  % dose/organ: 12.3 ± 2.18 % dose/organ
[3]; [20]
  % dose/g: 1.09 ± 0.09 % dose/g
  % dose/organ: 11.0 ± 0.64 % dose/organ
[3]; [21]
  % dose/g: 0.81 ± 0.14 % dose/g
  % dose/organ: 8.16 ± 1.14 % dose/organ
[3]; Skin, 2 min after iv injection
  % dose/g: 0.42 ± 0.06 % dose/g
  % dose/organ: 1.68 ± 0.22 % dose/organ
[3]; [22]
  % dose/g: 0.98 ± 0.33 % dose/g
  % dose/organ: 3.86 ± 1.41 % dose/organ
[3]; Skin, 1 hr after iv injection
  % dose/g: 0.94 ± 0.06 % dose/g
  % dose/organ: 3.53 ± 0.16 % dose/organ
[3]; Skin, 2 hr after iv injection
  % dose/g: 0.82 ± 0.15 % dose/g
  % dose/organ: 3.11 ± 0.48 % dose/organ
[3]; [23]
  % dose/g: 4.95 ± 0.78 % dose/g
  % dose/organ: 0.51 ± 0.09 % dose/organ
[3]; [24]
  % dose/g: 1.56 ± 0.28 % dose/g
  % dose/organ: 0.15 ± 0.03 % dose/organ
[3]; [25]
  % dose/g: 1.64 ± 0.13 % dose/g
  % dose/organ: 0.15 ± 0.04 % dose/organ
[3]; [26]
  % dose/g: 1.16 ± 0.07 % dose/g
  % dose/organ: 0.09 ± 0.01 % dose/organ
[2]; octanol/0.1 M Na2HPO4 buffer (pH 7.4)
  Log P: 2.77

## CNc1ccc(-c2ccc3nc(OCCOCCOCC[18F])ccc3c2)cc1 [[^18F]34a]
[3]; [4]
  % dose/g: 2.50 ± 0.14 % dose/g
  % dose/organ: 4.29 ± 0.20 % dose/organ
[3]; [5]
  % dose/g: 1.49 ± 0.15 % dose/g
  % dose/organ: 2.51 ± 0.18 % dose/organ
[3]; Blood, 1 hr after iv injection
  % dose/g: 1.61 ± 0.12 % dose/g
  % dose/organ: 2.87 ± 0.20 % dose/organ
[3]; Blood, 2 hr after iv injection
  % dose/g: 1.52 ± 0.23 % dose/g
  % dose/organ: 2.58 ± 0.26 % dose/organ
[3]; Bone, 2 min after iv injection
  % dose/g: 1.11 ± 0.11 % dose/g
  % dose/organ: 3.82 ± 0.33 % dose/organ
[3]; [6]
  % dose/g: 1.16 ± 0.20 % dose/g
  % dose/organ: 3.87 ± 0.43 % dose/organ
[3]; Bone, 1 hr after iv injection
  % dose/g: 1.49 ± 0.18 % dose/g
  % dose/organ: 5.31 ± 0.31 % dose/organ
[3]; Bone, 2 hr after iv injection
  % dose/g: 2.33 ± 0.43 % dose/g
  % dose/organ: 7.84 ± 0.91 % dose/organ
[3]; [7]
  % dose/g: 10.2 ± 1.09 % dose/g
  % dose/organ: 4.61 ± 0.60 % dose/organ
[3]; [8]
  % dose/g: 2.23 ± 0.29 % dose/g
  % dose/organ: 1.02 ± 0.11 % dose/organ
[3]; Brain, 1 hr after iv injection
  % dose/g: 1.88 ± 0.20 % dose/g
  % dose/organ: 0.90 ± 0.08 % dose/organ
[3]; Brain, 2 hr after iv injection
  % dose/g: 1.90 ± 0.25 % dose/g
  % dose/organ: 0.85 ± 0.12 % dose/organ
[3]; [9]
  % dose/g: 10.7 ± 2.06 % dose/g
  % dose/organ: 1.26 ± 0.20 % dose/organ
[3]; [10]
  % dose/g: 2.86 ± 0.30 % dose/g
  % dose/organ: 0.36 ± 0.05 % dose/organ
[3]; Heart, 1 hr after iv injection
  % dose/g: 2.20 ± 0.31 % dose/g
  % dose/organ: 0.29 ± 0.03 % dose/organ
[3]; Heart, 2 hr after iv injection
  % dose/g: 1.71 ± 0.13 % dose/g
  % dose/organ: 0.19 ± 0.01 % dose/organ
[3]; [11]
  % dose/g: 13.6 ± 0.10 % dose/g
  % dose/organ: 5.22 ± 0.33 % dose/organ
[3]; [12]
  % dose/g: 4.41 ± 0.49 % dose/g
  % dose/organ: 1.69 ± 0.22 % dose/organ
[3]; [13]
  % dose/g: 3.57 ± 0.64 % dose/g
  % dose/organ: 1.36 ± 0.09 % dose/organ
[3]; [14]
  % dose/g: 2.47 ± 0.45 % dose/g
  % dose/organ: 1.00 ± 0.24 % dose/organ
[3]; [15]
  % dose/g: 18.2 ± 0.95 % dose/g
  % dose/organ: 21.2 ± 0.76 % dose/organ
[3]; [16]
  % dose/g: 11.9 ± 1.63 % dose/g
  % dose/organ: 14.2 ± 0.91 % dose/organ
[3]; Liver, 1 hr after iv injection
  % dose/g: 8.99 ± 1.19 % dose/g
  % dose/organ: 11.8 ± 0.65 % dose/organ
[3]; Liver, 2 hr after iv injection
  % dose/g: 6.72 ± 0.58 % dose/g
  % dose/organ: 8.29 ± 1.09 % dose/organ
[3]; Lung, 2 min after iv injection
  % dose/g: 6.83 ± 0.07 % dose/g
  % dose/organ: 1.34 ± 0.03 % dose/organ
[3]; [17]
  % dose/g: 2.87 ± 0.32 % dose/g
  % dose/organ: 0.54 ± 0.06 % dose/organ
[3]; Lung, 1 hr after iv injection
  % dose/g: 2.42 ± 0.34 % dose/g
  % dose/organ: 0.48 ± 0.06 % dose/organ
[3]; Lung, 2 hr after iv injection
  % dose/g: 1.96 ± 0.29 % dose/g
  % dose/organ: 0.36 ± 0.05 % dose/organ
[3]; [18]
  % dose/g: 0.65 ± 0.01 % dose/g
  % dose/organ: 6.40 ± 0.14 % dose/organ
[3]; [19]
  % dose/g: 1.50 ± 0.21 % dose/g
  % dose/organ: 14.5 ± 2.59 % dose/organ
[3]; [20]
  % dose/g: 1.33 ± 0.17 % dose/g
  % dose/organ: 13.5 ± 0.83 % dose/organ
[3]; [21]
  % dose/g: 0.98 ± 0.08 % dose/g
  % dose/organ: 9.55 ± 0.31 % dose/organ
[3]; Skin, 2 min after iv injection
  % dose/g: 0.58 ± 0.07 % dose/g
  % dose/organ: 2.13 ± 0.27 % dose/organ
[3]; [22]
  % dose/g: 1.03 ± 0.12 % dose/g
  % dose/organ: 3.70 ± 0.28 % dose/organ
[3]; Skin, 1 hr after iv injection
  % dose/g: 1.47 ± 0.12 % dose/g
  % dose/organ: 5.67 ± 0.85 % dose/organ
[3]; Skin, 2 hr after iv injection
  % dose/g: 1.12 ± 0.05 % dose/g
  % dose/organ: 4.12 ± 0.12 % dose/organ
[3]; [23]
  % dose/g: 4.11 ± 1.02 % dose/g
  % dose/organ: 0.47 ± 0.08 % dose/organ
[3]; [24]
  % dose/g: 2.16 ± 0.05 % dose/g
  % dose/organ: 0.21 ± 0.00 % dose/organ
[3]; [25]
  % dose/g: 1.89 ± 0.27 % dose/g
  % dose/organ: 0.17 ± 0.01 % dose/organ
[3]; [26]
  % dose/g: 1.48 ± 0.20 % dose/g
  % dose/organ: 0.14 ± 0.02 % dose/organ
[2]; octanol/0.05 M Na2HPO4 buffer (pH 7.4)
  Log P: 3.23
